According to patent US4070245A, “Substrate for the quantitative determination of proteolytic enzymes” (Pentapharm A.G., priority 1975, dated 1978):
Structures can show the parent of a compound that is named as a salt. Where a SMILES comes first, the peptide text is derived from it. The star is where a group is joined. pNA = O=[N+]([O-])c1ccc(N*)cc1; Tos = Cc1ccc(S(=O)(=O)*)cc1; Cbz = O=C(OCc1ccccc1)*; Bz = O=C(c1ccccc1)*

Assays:
[1] = molecular target: batroxobin (thrombin-like enzyme from venom of Bothrops moojeni) (Bothrops atrox, UniProt P04971); format: biochemical; conditions: pH 8.4
Solubility in water = format: physicochemical; conditions: for solubility: water
human plasmin = molecular target: T1, human plasmin (Homo sapiens, UniProt P00747); assay: Km and vmax from Lineweaver-Burk diagram, human plasmin; format: biochemical; conditions: value marked CU, ionic strength 0.15, pH 8.4, 37° C
T1 construct: 0.4 CU/ml of human plasmin
Protocol: (§1) As is evident from equation (2) constants Km and k3 determine the activity of the enzyme substrate for a given enzyme. For determining these constants the following procedure is followed:
(§2) The enzyme and the substrate are mixed in a buffer solution, and the reaction is followed spectrophotometrically for 2 to 30 minutes. The concentration of substrate [S] is varied, whereas the enzyme concentration [E] is kept constant. If the extinction (OD) (= optical density) is plotted in a co-ordinate system as a function of time, a curve is obtained the tangent of which (difference in extinction per minute, Δ OD/minute, from which the quantity in μmoles of pNA/min (v) can be calculated) at time zero corresponds to the ideal course of the hydrolysis. By means of this tangent the initial rate of the hydrolysis can be determined.
(§3) If 1/v is plotted against 1/[S], a Lineweaver-Burk diagram (cf. "Kurzes Lehrbuch der Biochemie" by P. KARSON, Georg Thieme-Verlag, Stuttgart, 1967., p. 70) is obtained from which vmax and Km can be determined graphically. [formula] were determined with N^α-Cbo-Gly-Pro-Arg-pNA.HCl (substrate according to Example 1) for human thrombin, human plasmin and bovine trypsin. Km and vmax were determined for the enzymes by means of the LineweaverBurk equation (the Lineweaver-Burk diagram is shown in FIG. 7 of the drawings attached to the specification). […]

human ecarin-thrombin = molecular target: T2, human ecarin-thrombin (Homo sapiens, UniProt P00734); assay: Enzymatic release of p-nitroaniline from substrate by human ecarin-thrombin; format: biochemical; conditions: substrate concentration 10^-4 M; pH 8.4, ionic strength 0.15, 37° C
T2 construct: 0.28 NIH/ml of human ecarin-thrombin

human thrombin coagulase = human thrombin coagulase (Homo sapiens, UniProt P00734); assay: Enzymatic release of p-nitroaniline from substrate by human thrombin coagulase (staphylo-thrombin); format: biochemical; conditions: substrate concentration 10^-4 M; pH 8.4, ionic strength 0.15, 37° C
bovine trypsin = molecular target: T3, bovine trypsin (Bos taurus, UniProt P00760); assay: Km and vmax from Lineweaver-Burk diagram, bovine trypsin; format: biochemical; conditions: value marked NF, ionic strength 0.15, pH 8.4, 37° C
T3 construct: 1.8 NF/ml of bovine trypsin
T3 sequence (P00760 24-246): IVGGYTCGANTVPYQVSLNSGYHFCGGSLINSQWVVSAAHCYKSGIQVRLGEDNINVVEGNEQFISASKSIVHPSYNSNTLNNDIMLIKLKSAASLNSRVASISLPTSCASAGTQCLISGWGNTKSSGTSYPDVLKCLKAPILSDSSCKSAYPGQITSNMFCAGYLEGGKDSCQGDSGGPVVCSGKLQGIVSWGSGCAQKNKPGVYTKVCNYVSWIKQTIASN
Protocol: as §1, §2, §3

human thrombin [2] = molecular target: T4, human thrombin (Homo sapiens, UniProt P00734); assay: Km and vmax from Lineweaver-Burk diagram, human thrombin; format: biochemical; conditions: ionic strength 0.15, pH 8.4, 37° C; for Km: tris-imidazole buffer, graphically from Lineweaver-Burk diagram; for vmax: value marked NIH
T4 construct: 0.56 NIH/ml of human thrombin
Protocol: as §1, §2
Km and vmax were determined for the enzymes by means of the LineweaverBurk equation (the Lineweaver-Burk diagram is shown in FIG. 7 of the drawings attached to the specification). […] According to the same principle Km and vmax were determined for the other enzymes. All determinations were carried out in trisimidazole buffer at an ionic strength of 0.15 and a pH of 8.4 at 37° C.

human thrombin [3] = molecular target: T4, human thrombin; assay: Enzymatic release of split product NH2-R2 from chromogenic/fluorogenic substrate by human thrombin; format: biochemical; conditions: in words, from Table 1
Protocol: The degree of the enzymatic hydrolysis of the substrate, which is proportional to the quantity of p-Nitroaniline formed, can be easily determined by spectrophotometric measurement at 405 nm. […] The conditions are practically the same for the other substrates carrying a p-nitroanilino group as a chromogenic group. The spectrophotometric measurement was therefore, carried out in all cases at 405 nm.
The mixture was pre-incubated for 2 minutes at 37° C. […] The increase in the absorption was measured spectrophotometrically at 405 nm and continuously followed by means of a recording device. The measuring results listed in Tables 1 and 2 were all obtained under the test conditions defined above. The quantity of the formed split product NH2 --R^2 is a measure for the susceptibility of the substrate to the enzymes. […] For determining the quantity (nanomole) of p-napthylamine and 4-methoxy-β-naphthylamine (substrates XII to XV, XVIII and XIX), respectively, formed per minute the samples were irradiated in a fluorescence photometer with light having a wave length of 350 nm. The quantity of the formed split product was determined by measuring the intensity of the light emitted at 420 nm.

[4] = substrate: N=C(N)NCCC[C@H](NC(=O)[C@@H]1CCCN1C(=O)CNC(=O)OCc1ccccc1)C(=O)Nc1ccc([N+](=O)[O-])cc1; assay: Km and vmax from Lineweaver-Burk diagram, human plasmin; format: biochemical; conditions: other: human plasmin, tris-imidazole buffer, ionic strength 0.15, pH 8.4, 37° C
Protocol: as §1, §2, §3

[5] = substrate: Cc1ccc(S(=O)(=O)NCC(=O)N2CCC[C@H]2C(=O)N[C@@H](CCCNC(=N)N)C(=O)Nc2ccc([N+](=O)[O-])cc2)cc1; assay: as above; format: biochemical; conditions: other: human plasmin, tris-imidazole buffer, ionic strength 0.15, pH 8.4, 37° C
Protocol: as §1, §2, §3

batroxobin (thrombin-like enzyme from venom of Bothrops moojeni), sequence (P04971 25-255 limits assumed): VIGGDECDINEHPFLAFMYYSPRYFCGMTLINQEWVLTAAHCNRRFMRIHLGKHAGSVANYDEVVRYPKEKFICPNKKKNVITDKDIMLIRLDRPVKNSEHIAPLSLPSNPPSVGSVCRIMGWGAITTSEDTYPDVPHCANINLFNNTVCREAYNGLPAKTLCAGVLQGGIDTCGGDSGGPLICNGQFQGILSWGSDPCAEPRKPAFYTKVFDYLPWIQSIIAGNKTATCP

Row | Molecule | Quantity of p-nitroaniline enzymatically split off from the substrate in 1 minute by the quantity of batroxobin corresponding to 1 NIH [1] [nmol] | solubility (Solubility in water) [µg/mL] | vmax (human plasmin) [µmol/L] | Quantity of p-nitroaniline enzymatically split off from the substrate in 1 minute by the quantity of human ecarin-thrombin corresponding to 1 NIH (human ecarin-thrombin) [nmol] | Quantity of p-nitroaniline enzymatically split off from the substrate in 1 minute by the quantity of human thrombin coagulase corresponding to 1 NIH (human thrombin coagulase) [nmol] | vmax (bovine trypsin) [µmol/L] | Km (human thrombin [2]) [µM] | vmax (human thrombin [2]) [µmol/L] | susceptibility to human thrombin compared with N^α -Bz-Phe-Val-Arg-pNA.HCl (human thrombin [3]) | further results
1 | N=C(N)NCCC[C@H](NC(=O)[C@@H]1CCCN1C(=O)CNC(=O)OCc1ccccc1)C(=O)Nc1ccc([N+](=O)[O-])cc1 [Substrate I, N^α -Cbo-Gly-Pro-Arg-pNA.HCl] (Cbz-Gly-Pro-Arg-pNA) | 15.81 | > 4000 | 0.673 | 246.4 | 575 | 0.0427 | 57.1 | 0.0534 | much higher | solubility in water relative to Bz-Phe-Val-Arg-pNA.HCl (Solubility in water; ratio to prior art thrombin substrate): 4 times
2 | CC(C)[C@H](NC(=O)[C@H](Cc1ccccc1)NC(=O)c1ccccc1)C(=O)N[C@@H](CCCNC(=N)N)C(=O)Nc1ccc([N+](=O)[O-])cc1 [N^α -Bz-Phe-Val-Arg-pNA . HCl, N^α -Bz-Phe-Val-Arg-pNA.HCl, reference compound] (Bz-Phe-Val-Arg-pNA) | 3.26 | ~1000 | – | 30.7 | 102 | – | – | – | – | –
3 | Cc1ccc(S(=O)(=O)NCC(=O)N2CCC[C@H]2C(=O)N[C@@H](CCCNC(=N)N)C(=O)Nc2ccc([N+](=O)[O-])cc2)cc1 [Substrate VII, n^α -tos-Gly-Pro-Arg-pNA.HCl] (Tos-Gly-Pro-Arg-pNA) | – | – | 0.618 | – | – | 0.0297 | 17 | 0.0757 | much higher | –
4 | CC(C)COC(=O)NCC(=O)N1CCC[C@H]1C(=O)N[C@@H](CCCNC(=N)N)C(=O)Nc1ccc([N+](=O)[O-])cc1 [Substrate XI, n^α -isobutyloxycarbonyl-Gly-Pro-Arg-p-Na.HCl] | – | – | – | – | – | – | – | – | much higher | –
5 | N=C(N)NCCC[C@H](NC(=O)[C@@H]1CCCN1C(=O)CNS(=O)(=O)c1ccccc1)C(=O)Nc1ccc([N+](=O)[O-])cc1 [Substrate VIII, n^α -benzenesulfonyl-Gly-Pro-Arg-pNA.NCl] | – | – | – | – | – | – | – | – | much higher | –
6 | human plasmin (Homo sapiens) (protein, 0.4 CU/ml of human plasmin) chain 1: VVGGCVAHPHSWPWQVSLRTRFGMHFCGGTLISPEWVLTAAHCLEKSPRPSSYKVILGAHQEVNLEPHVQEIEVSRLFLEPTRKDIALLKLSSPAVITDKVIPACLPSPNYVVADRTECFITGWGETQGTFGAGLLKEAQLPVIENKVCNRYEFLNGRVQSTELCAGHLAGGTDSCQGDSGGPLVCFEKDKYILQGVTSWGLGCARPNKPGVYVRVSRFVTWIEGVMRNN chain 2: KVYLSECKTGNGKNYRGTMSKTKNGITCQKWSSTSPHRPRFSPATHPSEGLEENYCRNPDNDPQGPWCYTTDPEKRYDYCDILECEEECMHCSGENYDGKISKTMSGLECQAWDSQSPHAHGYIPSKFPNKNLKKNYCRNPDRELRPWCFTTDPNKRWELCDIPRCTTPPPSSGPTYQCLKGTGENYRGNVAVTVSGHTCQHWSAQTPHTHNRTPENFPCKNLDENYCRNPDGKRAPWCHTTNSQVRWEYCKIPSCDSSPVSTEQLAPTAPPELTPVVQDCYHGDGQSYRGTSSTTTTGKKCQSWSSMTPHRHQKTPENYPNAGLTMNYCRNPDADKGPWCFTTDPSVRWEYCNLKKCSGTEASVVAPPPVVLLPDVETPSEEDCMFGNGKGYRGKRATTVTGTPCQDWAAQEPHRHSIFTPETNPRAGLEKNYCRNPDGDVGGPWCYTTNPRKLYDYCDVPQCAAPSFDCGKPQVEPKKCPGR | – | – | – | – | – | – | – | – | – | Km [4]: 357 µM; Km [5]: 323 µM
